Reference: patent US9994594B2, “Inhibitors of arginase and their therapeutic applications” (MARS, INCORPORATED, priority 2010, dated 2018)
Where a name gives a salt, the structure may show the parent alone. Read-outs that look alike come from different tables or passages of the source. Each block holds one compound with its values, some of them ahead of it.

Columns and labels:
[1] = target: T1, human arginase I (ARG I) (Homo sapiens, UniProt P05089); experiment: Inhibition of arginase I, spectrophotometric urea assay at 530 nm; type: biochemical; settings: read-out: Potency (ARG I)
T1 sequence (P05089 1-322): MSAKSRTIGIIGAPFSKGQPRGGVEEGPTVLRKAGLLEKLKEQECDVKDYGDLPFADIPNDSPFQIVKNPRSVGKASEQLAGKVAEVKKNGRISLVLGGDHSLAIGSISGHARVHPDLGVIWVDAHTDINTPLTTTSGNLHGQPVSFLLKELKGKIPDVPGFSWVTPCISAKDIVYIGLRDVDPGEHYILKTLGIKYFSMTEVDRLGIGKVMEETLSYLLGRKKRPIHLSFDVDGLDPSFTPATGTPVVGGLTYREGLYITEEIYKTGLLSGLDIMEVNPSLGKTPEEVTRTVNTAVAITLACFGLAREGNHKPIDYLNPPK
Procedure, shortened: (§1)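 IC50 was derived by regression of OD530 normalized to uninhibited-enzyme controls against log concentration. Urea from 60-min, 37 °C turnover of L-arginine with manganese sulfate was detected after acid o-phthaldialdehyde/primaquine quench and 10 min colour development. Arginase I and II came from 100 ng/ml stocks in pH 7.4 phosphate with ovalbumin.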

[2] = target: T2, arginase II (ARG II) (Homo sapiens, UniProt P78540); experiment: Inhibition of arginase II, spectrophotometric urea assay at 530 nm; type: biochemical
T2 sequence (P78540 23-354): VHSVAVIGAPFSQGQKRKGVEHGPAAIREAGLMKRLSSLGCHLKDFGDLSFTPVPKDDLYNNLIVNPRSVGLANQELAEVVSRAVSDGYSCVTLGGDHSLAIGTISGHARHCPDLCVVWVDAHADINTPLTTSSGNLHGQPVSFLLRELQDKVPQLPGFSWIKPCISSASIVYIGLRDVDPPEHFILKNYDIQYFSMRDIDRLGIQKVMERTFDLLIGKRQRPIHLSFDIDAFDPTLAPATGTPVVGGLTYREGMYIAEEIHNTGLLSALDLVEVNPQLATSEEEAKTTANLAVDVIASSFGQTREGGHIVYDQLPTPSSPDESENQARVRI
Procedure, shortened: as §1

[3] = Formula II compounds, Table 2-A
[4] = Formula II compounds, Table 2-A, read-out: Potency (ARG)
[5] = Formula I compounds, Table 2, read-out: Potency (ARG II)

SMILES: Cc1ccc(CN2CC[C@@H](C(N)(CCCCB(O)O)C(=O)O)C2)cc1 (stereo partly drawn) [Example 39-A, 2-Amino-6-borono-2-((R)-1-(4-methylbenzyl)pyrrolidin-3-yl)hexanoic acid dihydrochloride]
IC50 [1, 3]: 251 to 1000 nM
IC50 [2, 4]: 251 to 1000 nM

SMILES: NC(CCCCB(O)O)(C(=O)O)C1CCN(c2ccc(Cl)cn2)CC1 (centres unmarked) [Example 85-A, 2-amino-6-borono-2-(1-(5-chloropyridin-2-yl)piperidin-4-yl)hexanoic acid hydrochloride]
IC50 [1, 3]: 1000 to 2000 nM
IC50 [2, 4]: 251 to 1000 nM

SMILES: NC(CCCCB(O)O)(C(=O)O)C1CCN(C2CCCC2)CC1 (centres unmarked) [24-A, 2-amino-6-borono-2-(1-cyclopentylpiperidin-4-yl)hexanoic acid dihydrochloride]
IC50 [1, 3]: 251 to 1000 nM
IC50 [2, 4]: 251 to 1000 nM

SMILES: NC(CCCCB(O)O)(C(=O)O)C1CCCN(Cc2ccc(Cl)c(Cl)c2)CC1 (centres unmarked) [Example 73-A, 2-amino-6-borono-2-(1-(3,4-dichlorobenzyl)azepan-4-yl)hexanoic acid dihydrochloride]
IC50 [1, 3]: 0.1 to 250 nM
IC50 [2, 4]: 251 to 1000 nM

SMILES: CCCN1CCC(C(N)(CCCCB(O)O)C(=O)O)CC1 (centres unmarked) [Example 101-A, 2-amino-6-borono-2-(1-propylpiperidin-4-yl)hexanoic acid dihydrochloride]
IC50 [1, 3]: 251 to 1000 nM
IC50 [2, 4]: 0.1 to 250 nM

SMILES: NC(CCCCB(O)O)(C(=O)O)C1CCN(Cc2cccc3ccccc23)CC1 (centres unmarked) [Example 98-A, 2-amino-6-borono-2-(1-(naphthalen-1-ylmethyl)piperidin-4-yl)hexanoic acid dihydrochloride]
IC50 [1, 3]: 0.1 to 250 nM
IC50 [2, 4]: 0.1 to 250 nM

SMILES: NC(CCCCB(O)O)(C(=O)O)[C@H]1CC[C@@H](C(=O)c2ccc(Cl)cc2)CC1 (stereo partly drawn) [Example 84-A, cis-2-Amino-6-borono-2-[4-(4-Chlorobenzoyl)-cyclohexyl]hexanoic acid hydrochloride]
IC50 [1, 3]: > 5000 nM
IC50 [2, 4]: > 5000 nM

SMILES: Cc1ccc(NC(=S)N2CCC(C(N)(CCCCB(O)O)C(=O)O)CC2)cc1Cl (centres unmarked) [Example 44-A, 2-amino-6-borono-2-(1-(3-chloro-4-methylphenylcarbamothioyl)piperidin-4-yl)hexanoic acid]
IC50 [1, 3]: 251 to 1000 nM
IC50 [2, 4]: 1000 to 2000 nM

SMILES: N[C@](CCCCB(O)O)(CCN1CCC[C@H](O)C1)C(=O)O [compound 5, (R)-2-amino-6-borono-2-(2-((S)-3-hydroxypiperidin-1-yl)ethyl)hexanoic acid dihydrochloride]
IC50 ([1]; Formula I compounds, Table 2): 1000 to 2000 nM
IC50 [2, 5]: 2000 to 5000 nM

Next, values leading:

IC50 ([1]; Formula I compounds, Table 2): > 5000 nM
IC50 [2, 5]: > 5000 nM
SMILES: COc1ccc(OCCC(N)(CCCCB(O)O)C(=O)O)cc1 (centres unmarked) [compound 93, 2-amino-6-borono-2-(2-(4-methoxyphenoxy)ethyl)hexanoic acid hydrochloride]

IC50 ([1]; Formula I compounds, Table 2): 2000 to 5000 nM
IC50 [2, 5]: 2000 to 5000 nM
SMILES: NC(CCCCB(O)O)(C(=O)O)C(O)CCC(F)(F)F (centres unmarked) [compound 111, 2-amino-2-(4-boronobutyl)-6,6,6-trifluoro-3-hydroxyhexanoic acid hydrochloride]

IC50 ([1]; Formula I compounds, Table 2): 0.1 to 250 nM
IC50 [2, 5]: 0.1 to 250 nM
SMILES: NC(CCCCB(O)O)(CCCNCc1ccc(Cl)c(Cl)c1)C(=O)O (centres unmarked) [compound 141, 2-amino-6-borono-2-(3-(3,4-dichlorobenzylamino)propyl)hexanoic acid dihydrochloride]

IC50 ([1]; Formula I compounds, Table 2): 1000 to 2000 nM
IC50 [2, 5]: 2000 to 5000 nM
SMILES: COC1CCN(CCC(N)(CCCCB(O)O)C(=O)O)CC1 (centres unmarked) [compound 41, 2-amino-6-borono-2-(2-(4-methoxypiperidin-1-yl)ethyl)hexanoic acid dihydrochloride]

IC50 ([1]; Formula I compounds, Table 2): 2000 to 5000 nM
IC50 [2, 5]: 2000 to 5000 nM
SMILES: CN(CCC(N)(CCCCB(O)O)C(=O)O)CC(=O)O (centres unmarked) [compound 18, 2-amino-6-borono-2-(2-((carboxymethyl)(methyl)amino)ethyl)hexanoic acid dihydrochloride]

IC50 ([1]; Formula I compounds, Table 2): 1000 to 2000 nM
IC50 [2, 5]: 2000 to 5000 nM
SMILES: NCCN(CCN)CCC(N)(CCCCB(O)O)C(=O)O (centres unmarked) [compound 51, 2-amino-2-(2-(bis(2-aminoethyl)amino)ethyl)-6-boronohexanoic acid tetrahydrochloride]

IC50 ([1]; Formula I compounds, Table 2): 2000 to 5000 nM
IC50 [2, 5]: 2000 to 5000 nM
SMILES: C[C@H](NCC(N)(CCCCB(O)O)C(=O)O)c1ccccc1 (stereo partly drawn) [compound 90, 2-amino-6-borono-2-(((S)-1-phenylethylamino)methyl)hexanoic acid dihydrochloride]
